Source: patent US20210085711A1 (Japan Tobacco Inc., priority 2017, published 2021)
Where two headings read alike, the source gives them in different places.

Experiments:
[1] = system: patients with hypermenorrhea and/or patients with hypermenorrhea-associated gynecologic diseases (iron-deficiency anemia patients); assay: Phase II clinical trial of JTT-751: mean corpuscular volume value (MCV); format: in vivo, human
Protocol: (§1) This test was a three-stage safety and efficacy clinical trial at multi-facilities. The first stage was a pre-observation period (Day −40 to Day −1), the second stage was an administration period (Day 1 to Day 48) (efficacy and safety evaluation period), and the third stage was a post-observation period (Day 49 to Day 63) (efficacy and safety evaluation period). The safety evaluation and efficacy evaluation were performed by multi-facility collaboration, placebo control, random allocation, double-blind trial, and parallel group comparison test.
(§2) (1) Japanese patients who are 20 or more and less than 65 years old at the time of agreement and can visit an outpatient clinic (2) Patients who have an Hb value (measured using HemoCue® Hb 201 DM analyzer in the institute of clinical practice) of 7.0 g/dL or more and less than 11.0 g/dL on both the observation start date and Week 0, and the difference between the two days is 1.0 g/dL or less (3) Patients with a TIBC of 360 μg/dL or more or a serum ferritin value of less than 12 ng/mL on the observation start date
(§3) The administration period of the trial drug is seven weeks which starts from the next day of the Week 0 visit to the day before the Week 7 visit, provided that the trial drug is not taken on the scheduled Week 3 visit.
(2) Subsidiary evaluation items 1) Erythrocyte-related examination values and amount of change from Week 0 at each observation date 2) Iron-related test values and amount of change from Week 0 at each observation date 3) Achievement rate of target Hb value (female; 12.0 g/dL or more, male; 13.0 g/dL or more) at each observation date 4) Achievement rate of 1.0 g/dL or more and achievement rate of 2.0 g/dL or more in Hb value improvement from Week 0 at each observation date 5) Average daily change of Hb value from Week 0 to each observation date
(§4) The blood hemoglobin value (Hb), the serum iron level, the serum ferritin value, the total iron-binding capacity (TIBC) and the transferrin saturation rate (TSAT), and the mean corpuscular volume (MCV) were each examined at the observation start date, Week 0, Week 3, Week 7, the end of administration and the consultation at nine weeks after Week 0; the hepcidin concentration (Hepcidin 25) and the serum soluble transferrin receptor concentration (sTfR) were each examined on Week 0, Week 3 and Week 7 and at the end of administration; and the C-terminal FGF23 value (cFGF23) and the intact FGF23 value (iFGF23) were each examined on Week 0 and Week 7 and at the end of administration.

[2] = system: patients with hypermenorrhea and/or patients with hypermenorrhea-associated gynecologic diseases (iron-deficiency anemia patients)
Protocol: as §1, §3, §4

[3] = system: patients with hypermenorrhea and/or patients with hypermenorrhea-associated gynecologic diseases (iron-deficiency anemia patients); assay: Phase II clinical trial of JTT-751: C-terminal FGF23 value (cFGF23); format: in vivo, human
Protocol: as §1, §2, §3, §4

[4] = 9 weeks after Week 0, JTT-751 250 mg group
[5] = 9 weeks after Week 0, JTT-751 500 mg group
[6] = 9 weeks after Week 0, JTT-751 1000 mg group
[7] = 9 weeks after Week 0, JTT-751 1500 mg group
[8] = Administration start date, JTT-751 250 mg group
[9] = Administration start date, JTT-751 500 mg group
[10] = Administration start date, JTT-751 1000 mg group
[11] = Administration start date, JTT-751 1500 mg group
[12] = End of administration, JTT-751 250 mg group
[13] = End of administration, JTT-751 500 mg group
[14] = End of administration, JTT-751 1000 mg group
[15] = End of administration, JTT-751 1500 mg group
[16] = Week 0 (baseline), JTT-751 250 mg group
[17] = Week 0 (baseline), JTT-751 500 mg group
[18] = Week 0 (baseline), JTT-751 1000 mg group
[19] = Week 0 (baseline), JTT-751 1500 mg group
[20] = 250 mg/day, 9 weeks after Week 0
[21] = 250 mg/day, End of administration
[22] = 500 mg/day, 9 weeks after Week 0
[23] = 500 mg/day, End of administration
[24] = 1000 mg/day, 9 weeks after Week 0
[25] = 1000 mg/day, End of administration
[26] = 1500 mg/day, 9 weeks after Week 0
[27] = 1500 mg/day, End of administration

Substance: Ferric citrate [JTT-751]
- MCV, Mean [1, 4]: 78.9 fL
- MCV, Median [1, 4]: 79.0 fL
- MCV, Mean [1, 5]: 80.8 fL
- MCV, Median [1, 5]: 81.0 fL
- MCV, Mean [1, 6]: 83.9 fL
- MCV, Median [1, 6]: 84.0 fL
- MCV, Mean [1, 7]: 82.4 fL
- MCV, Median [1, 7]: 82.5 fL
- MCV, Mean [1, 8]: 71.5 fL
- MCV, Median [1, 8]: 73.0 fL
- MCV, Mean [1, 9]: 71.9 fL
- MCV, Median [1, 9]: 72.0 fL
- MCV, Mean [1, 10]: 72.5 fL
- MCV, Median [1, 10]: 71.0 fL
- MCV, Mean [1, 11]: 71.0 fL
- MCV, Median [1, 11]: 69.0 fL
- MCV, Mean [1, 12]: 78.4 fL
- MCV, Median [1, 12]: 79.5 fL
- MCV, Mean [1, 13]: 79.8 fL
- MCV, Median [1, 13]: 81.0 fL
- MCV, Mean [1, 14]: 82.5 fL
- MCV, Median [1, 14]: 82.0 fL
- MCV, Mean [1, 15]: 81.4 fL
- MCV, Median [1, 15]: 81.0 fL
- MCV, Mean [1, 16]: 70.8 fL
- MCV, Median [1, 16]: 72.0 fL
- MCV, Mean [1, 17]: 70.9 fL
- MCV, Median [1, 17]: 70.5 fL
- MCV, Mean [1, 18]: 72.4 fL
- MCV, Median [1, 18]: 70.0 fL
- MCV, Mean [1, 19]: 70.6 fL
- MCV, Median [1, 19]: 68.0 fL
- mean corpuscular volume value (MCV), time-dependent change ([1]; Week 0, Week 3 and Week 7): increased along with the continuous administration
- MCV, Mean ([1]; Week 3, JTT-751 250 mg group): 73.9 fL
- MCV, Median ([1]; Week 3, JTT-751 250 mg group): 74.0 fL
- MCV, Mean ([1]; Week 3, JTT-751 500 mg group): 75.3 fL
- MCV, Median ([1]; Week 3, JTT-751 500 mg group): 75.0 fL
- MCV, Mean ([1]; Week 3, JTT-751 1000 mg group): 78.3 fL
- MCV, Median ([1]; Week 3, JTT-751 1000 mg group): 77.0 fL
- MCV, Mean ([1]; Week 3, JTT-751 1500 mg group): 76.7 fL
- MCV, Median ([1]; Week 3, JTT-751 1500 mg group): 77.0 fL
- MCV, Mean ([1]; Week 7, JTT-751 250 mg group): 78.4 fL
- MCV, Median ([1]; Week 7, JTT-751 250 mg group): 79.5 fL
- MCV, Mean ([1]; Week 7, JTT-751 500 mg group): 79.8 fL
- MCV, Median ([1]; Week 7, JTT-751 500 mg group): 81.0 fL
- MCV, Mean ([1]; Week 7, JTT-751 1000 mg group): 82.5 fL
- MCV, Median ([1]; Week 7, JTT-751 1000 mg group): 82.0 fL
- MCV, Mean ([1]; Week 7, JTT-751 1500 mg group): 81.4 fL
- MCV, Median ([1]; Week 7, JTT-751 1500 mg group): 81.0 fL
- mean corpuscular volume value (MCV) at the end of administration ([1]; end of administration): a value around the normal value
- TSAT, profile from the baseline (value at Week 0), Mean [2, 20]: 4.29%
- TSAT, profile from the baseline (value at Week 0), Median [2, 20]: 3.85%
- TSAT, profile from the baseline (value at Week 0), Mean [2, 21]: 9.12%
- TSAT, profile from the baseline (value at Week 0), Median [2, 21]: 7.60%
- TSAT, profile from the baseline (value at Week 0), Mean ([2]; 250 mg/day, Week 3): 5.26%
- TSAT, profile from the baseline (value at Week 0), Median ([2]; 250 mg/day, Week 3): 4.85%
- TSAT, profile from the baseline (value at Week 0), Mean ([2]; 250 mg/day, Week 7): 9.12%
- TSAT, profile from the baseline (value at Week 0), Median ([2]; 250 mg/day, Week 7): 7.60%
- TSAT, profile from the baseline (value at Week 0), Mean [2, 22]: 7.27%
- TSAT, profile from the baseline (value at Week 0), Median [2, 22]: 5.90%
- TSAT, profile from the baseline (value at Week 0), Mean [2, 23]: 12.27%
- TSAT, profile from the baseline (value at Week 0), Median [2, 23]: 12.35%
- TSAT, profile from the baseline (value at Week 0), Mean ([2]; 500 mg/day, Week 3): 8.57%
- TSAT, profile from the baseline (value at Week 0), Median ([2]; 500 mg/day, Week 3): 3.60%
- TSAT, profile from the baseline (value at Week 0), Mean ([2]; 500 mg/day, Week 7): 12.27%
- TSAT, profile from the baseline (value at Week 0), Median ([2]; 500 mg/day, Week 7): 12.35%
- TSAT, profile from the baseline (value at Week 0), Mean [2, 24]: 12.42%
- TSAT, profile from the baseline (value at Week 0), Median [2, 24]: 12.60%
- TSAT, profile from the baseline (value at Week 0), Mean [2, 25]: 15.46%
- TSAT, profile from the baseline (value at Week 0), Median [2, 25]: 16.20%
- TSAT, profile from the baseline (value at Week 0), Mean ([2]; 1000 mg/day, Week 3): 15.56%
- TSAT, profile from the baseline (value at Week 0), Median ([2]; 1000 mg/day, Week 3): 9.90%
- TSAT, profile from the baseline (value at Week 0), Mean ([2]; 1000 mg/day, Week 7): 15.46%
- TSAT, profile from the baseline (value at Week 0), Median ([2]; 1000 mg/day, Week 7): 16.20%
- TSAT, profile from the baseline (value at Week 0), Mean [2, 26]: 11.41%
- TSAT, profile from the baseline (value at Week 0), Median [2, 26]: 9.95%
- TSAT, profile from the baseline (value at Week 0), Mean [2, 27]: 16.70%
- TSAT, profile from the baseline (value at Week 0), Median [2, 27]: 16.00%
- TSAT, profile from the baseline (value at Week 0), Mean ([2]; 1500 mg/day, Week 3): 15.59%
- TSAT, profile from the baseline (value at Week 0), Median ([2]; 1500 mg/day, Week 3): 7.90%
- TSAT, profile from the baseline (value at Week 0), Mean ([2]; 1500 mg/day, Week 7): 16.70%
- TSAT, profile from the baseline (value at Week 0), Median ([2]; 1500 mg/day, Week 7): 16.00%
- cFGF23, Mean [3, 21]: 214.72 RU/mL
- cFGF23, Median [3, 21]: 158.50 RU/mL
- cFGF23, Mean ([3]; 250 mg/day, Week 0 (baseline)): 779.17 RU/mL
- cFGF23, Median ([3]; 250 mg/day, Week 0 (baseline)): 705.00 RU/mL
- cFGF23, Mean ([3]; 250 mg/day, Week 7): 214.72 RU/mL
- cFGF23, Median ([3]; 250 mg/day, Week 7): 158.50 RU/mL
- cFGF23, Mean [3, 23]: 151.89 RU/mL
- cFGF23, Median [3, 23]: 127.50 RU/mL
- cFGF23, Mean ([3]; 500 mg/day, Week 0 (baseline)): 1011.06 RU/mL
- cFGF23, Median ([3]; 500 mg/day, Week 0 (baseline)): 773.50 RU/mL
- cFGF23, Mean ([3]; 500 mg/day, Week 7): 151.89 RU/mL
- cFGF23, Median ([3]; 500 mg/day, Week 7): 127.50 RU/mL
- cFGF23, Mean [3, 25]: 130.39 RU/mL
- cFGF23, Median [3, 25]: 100.00 RU/mL
- cFGF23, Mean ([3]; 1000 mg/day, Week 0 (baseline)): 675.16 RU/mL
- cFGF23, Median ([3]; 1000 mg/day, Week 0 (baseline)): 564.00 RU/mL
- cFGF23, Mean ([3]; 1000 mg/day, Week 7): 130.39 RU/mL
- cFGF23, Median ([3]; 1000 mg/day, Week 7): 100.00 RU/mL
- cFGF23, Mean [3, 27]: 114.92 RU/mL
- cFGF23, Median [3, 27]: 94.20 RU/mL
- cFGF23, Mean ([3]; 1500 mg/day, Week 0 (baseline)): 842.52 RU/mL
- cFGF23, Median ([3]; 1500 mg/day, Week 0 (baseline)): 777.00 RU/mL
- cFGF23, Mean ([3]; 1500 mg/day, Week 7): 114.92 RU/mL
- cFGF23, Median ([3]; 1500 mg/day, Week 7): 94.20 RU/mL
- C-terminal FGF23 value (cFGF23), time-dependent change ([3]; continuous administration): decreased along with the continuous administration
